Assays:
[1] = phase 3 clinical trials; cited from earlier work
[2] = test system: rat model of unilateral ureteral obstruction; test: Rat model of unilateral ureteral obstruction, renal injury; details: 0.2 mg/kg oral daily, 14 treatment days
Description: Housing temperature was maintained at 20-26° C. and humidity at 40%-60%. Rats were fed with a standard chow and allowed to access food and water ad libitum.
The formulation was prepared twice a week.
Vehicle or compounds were administrated by orally gavage daily. Unilateral ureteral obstruction was performed on the second day of compound treatment. Animals in model group, reference group and compound group underwent urethral ligation under isoflurane anesthesia one hour after receiving compound administration. A flank incision was cut to expose the left ureter, and a 4-0 surgical suture was used to perform two-point ligation to achieve urethral obstruction. Ureter was cut between the two ligation points. Animals in the control group were subjected to the same surgical treatment except the ligation and cut. After surgery, animals in each group continually received vehicle or compound for 12 more days, for a total of 14 treatment days.
Rats were sacrificed after 14 days' compound treatment. The obstructed kidney was weighed and collected for histology. The tissue samples were fixed with formalin, and then paraffin embedded. The embedded tissue was sectioned and stained with hematoxylin & eosin and Masson trichrome to assess kidney structure and fibrosis.
The multiple comparison was analyzed with the Kruskal-Wallis non-parameter test. […]

[3] = test system: rat model of hyperlipidemia induced by high cholesterol diet; test: Rat model of hyperlipidemia induced by high cholesterol diet (serum TG, NEFA); assay type: in vivo, Sprague-Dawley rats; details: for Serum NEFA compared with the vehicle group / Serum TG compared with the vehicle group: 0.2 mg/kg and 0.6 mg/kg oral, after 7 days of treatment (Day 8)
Source text: 8.2.1 High cholesterol diet (ASHF4) was used to induce an animal model of hyperlipidemia in the SD rats.
8.2.2 The male SD rats were fed with high cholesterol diet (ASHF4, Dyet, China) for 14 days. On the day before the start of the administration (Day 0), the animals were divided into 5 groups based on body weights and serum indicators and were continually fed with the high-cholesterol diet. The treatment groups were orally dosed with either compound or vehicle while continuing the high-cholesterol diet for a total of 1 week. The animals were weighed daily before the treatment, and the compounds were given at 9:00-9:30 in the morning based on the body weight of the day.
8.2.3 Animal blood was collected, and serum was separated for the analysis of serum lipid indicators on the day before the treatment and at the end of the last day for the experiment.
8.2.4 Serum indicators of triglyceride (TG) and free fatty acid (NEFA) were determined by an automatic blood biochemical analyzer.

[4] = 7-day repeated oral gavage, body weights of ICR mice; assay type: in vivo; details: for Weight Gain (g) compared with Day 0: n = 10
Source text: 50 male ICR mice aged 6-8 weeks; source: Laboratory Animal Business Department, Shanghai Institute of Planned Parenthood Research.
After 3 days of acclimatization, ICR mice were grouped according to their body weights. The day of grouping is designated as Day 0. […] The animals were weighed and recorded daily.

[5] = test system: db/db type 2 diabetes model; test: db/db type 2 diabetes model (body weight, serum TG, random blood glucose); details: for Serum TG levels compared with the vehicle group / Average daily body weights compared with the vehicle group: Aleglitazar 0.2 mg/kg; for Serum TG levels compared with the vehicle group: Compound 2 at different dosages; for Average daily body weights compared with the vehicle group: Day 10 to Day 15, Compound 2 0.05, 0.2, 1 mg/kg; for Level of lipid, free fatty acid and blood glucose compared with vehicle group: summary, all groups
Source text: 45 Db/db mice were evenly divided into 5 groups before the initiation of treatment based on the body weights, serum triglyceride (TG) levels, and random blood glucose levels.
All animals were weighed daily before each dosing and treated daily for 14 consecutive days.
All the data was imported into an Excel file and presented as Mean±SEM. Graphpad Prism 7.0 software was used for data statistical analysis by One-way or Two-way ANOVA, with P<0.05 as the criterion of significant differences.

[6] = test system: db/db type 2 diabetes model; test: Oral glucose tolerance test (OGTT) in db/db animals; assay type: in vivo, db/db mice; details: for OGTT blood glucose levels at each time point compared with the vehicle group: within 120 minutes, different dosages
Description: At the end of the experiment, oral glucose tolerance tests were carried out on the db/db animals treated by different compounds. […] .

[7] = test system: diabetic nephropathy model; test: Diabetic nephropathy pharmacodynamic model (uninephrectomized db/db mice); assay type: in vivo, db/db: BLKS male mice
Source text: At the age of 6 weeks, db/db mice were anesthetized with 2.5% […] and subjected to uninephrectomy with removal of right kidney. Buprenorphine was applied after surgery.
11.1.2 Procedure. Two weeks after surgery, db/db mice were randomly assigned into 5 groups. Wild type mice were used for the control animals. […] Compounds were orally administrated once per day for 10 weeks.
At the 5th and 9th week after compound administration, mice were placed in metabolic cages for urine collection. Albumin level was measured for 24 hr albumin excretion calculation. At the 10th week after treatment, the animals were sacrificed for kidney dissection. The kidney was fixed in 10% neutral buffed formalin, then paraffin-embedded for histopathological analysis. Glomerulosclerosis was assessed by evaluating glomerular basement membrane, mesangial expansion, nodular sclerosis and glomerulosclerosis. Severity was graded as follows: 0: normal; 1: Glomerular basement membrane thickening: isolated glomerular basement membrane thickening and only mild, nonspecific changes by light microscopy; 2: Mesangial expansion mild (IIa) or severe (IIb): glomeruli with mild or severe mesangial expansion but without nodular sclerosis or global glomerulosclerosis in more than 50% of glomeruli; 3: Nodular sclerosis: at least one glomerulus with nodular increase in mesangial matrix; 4: Advanced diabetic glomerulosclerosis: more than 50% global glomerulosclerosis with other clinical or pathological evidence that sclerosis is attributable to diabetic nephropathy. Renal tubular injury was scored as follows: 0: no obvious lesions; 1: up to 25% involvement of tubular lesion; 2: lesion in 25% to 50% of renal tubular; 3: 50% to 75% of renal tubular lesion and grade 4: >75% tubular lesion.
Graphpad 8.0 software was used for statistical analysis. The difference between the values were analyzed with one-way ANOVA. The difference between histopathological score was analyzed with Kruskal-Wallis nonparameter test. All values were compared with the group 2.

[8] = Inter-conversion relationship (slurry competition) and form stability of free acid forms; details: storage at RT for 1 month, XRPD
[9] = Day 8, 0.2 mg/kg oral QDx7 days
[10] = Day 8, 0.6 mg/kg oral QDx7 days
[11] = 0.2 mg/kg oral QDx7 days, Day 1, ICR mice
[12] = 0.2 mg/kg oral QDx7 days, Day 2, ICR mice
[13] = 0.2 mg/kg oral QDx7 days, Day 3, ICR mice
[14] = 0.2 mg/kg oral QDx7 days, Day 4, ICR mice
[15] = 0.2 mg/kg oral QDx7 days, Day 5, ICR mice
[16] = 0.2 mg/kg oral QDx7 days, Day 6, ICR mice
[17] = 0.2 mg/kg oral QDx7 days, Day 7, ICR mice
[18] = 1 mg/kg oral QDx7 days, Day 1, ICR mice
[19] = 1 mg/kg oral QDx7 days, Day 2, ICR mice
[20] = 1 mg/kg oral QDx7 days, Day 3, ICR mice
[21] = 1 mg/kg oral QDx7 days, Day 4, ICR mice
[22] = 1 mg/kg oral QDx7 days, Day 5, ICR mice
[23] = 1 mg/kg oral QDx7 days, Day 6, ICR mice
[24] = 1 mg/kg oral QDx7 days, Day 7, ICR mice
[25] = 0.2 mg/kg (Aleglitazar P<0.001; Compound 2 P<0.01)

Structure (SMILES): CO[C@@H](Cc1ccc(OCCc2nc(-c3ccccc3)oc2C)c2ccsc12)C(=O)O [Aleglitazar, aleglitazar]
- Blood sugar and blood lipid levels [1]: effectively reduce blood sugar and blood lipid levels
- Heart failure risk [1]: a certain degree of heart failure risk
- Total score of renal focal lesions compared to the model group [2]: did not achieve statistically significant improvement
- Serum NEFA compared with the vehicle group [3]: significantly reduce
- Serum TG compared with the vehicle group [3]: significantly reduce
- serum TG, significance compared with the first group (vehicle), One-way ANOVA [3, 9]: * (*p < 0.05)
- serum TG, significance compared with the first group (vehicle), One-way ANOVA [3, 10]: **** (****p < 0.0001)
- Weight Gain (g) compared with Day 0 [4, 11]: 0.48 ± 0.27 g
- Weight Gain (g) compared with Day 0 [4, 12]: 1.66 ± 0.39 g
- Weight Gain (g) compared with Day 0 [4, 13]: 2.62 ± 0.42 g
- Weight Gain (g) compared with Day 0 [4, 14]: 3.50 ± 0.42 g
- Weight Gain (g) compared with Day 0 [4, 15]: 3.92 ± 0.4 g
- Weight Gain (g) compared with Day 0 [4, 16]: 4.81 ± 0.37 g
- Weight Gain (g) compared with Day 0 [4, 17]: 5.39 ± 0.56 g
- Weight gain, significance compared with vehicle, One-way ANOVA ([4]; 0.2 mg/kg, Day 4): * (* p < 0.05)
- Daily average weight gain compared with the vehicle group ([4]; 0.2 mg/kg, Day 4 and Day 5): significantly higher
- Weight gain, significance compared with vehicle, One-way ANOVA ([4]; 0.2 mg/kg, Day 5): * (* p < 0.05)
- Weight Gain (g) compared with Day 0 [4, 18]: 0.5 ± 0.2 g
- Weight Gain (g) compared with Day 0 [4, 19]: 1.64 ± 0.26 g
- Weight Gain (g) compared with Day 0 [4, 20]: 2.61 ± 0.51 g
- Weight Gain (g) compared with Day 0 [4, 21]: 3.33 ± 0.54 g
- Weight Gain (g) compared with Day 0 [4, 22]: 3.86 ± 0.49 g
- Weight Gain (g) compared with Day 0 [4, 23]: 4.98 ± 0.52 g
- Weight Gain (g) compared with Day 0 [4, 24]: 5.34 ± 0.50 g
- Daily average weight gain compared with the vehicle group ([4]; 1 mg/kg, Day 6): significantly higher
- Weight gain, significance compared with vehicle, One-way ANOVA ([4]; 1 mg/kg, Day 6): * (* p < 0.05)
- Serum TG levels compared with the vehicle group ([5]; Day 6 and Day 12): significantly lower
- Random blood glucose reduction compared with the vehicle group ([5]; Day 7, 0.2 mg/kg): reached statistical significance
- Average daily body weights compared with the vehicle group [5]: significantly higher
- Level of lipid, free fatty acid and blood glucose compared with vehicle group [5]: significantly decreased
- OGTT AUC0-120 min compared with the vehicle group [6, 25]: significantly lower
- OGTT blood glucose levels at each time point compared with the vehicle group [6]: significantly reduced

Structure (SMILES): [2H]C([2H])(Cc1nc(-c2ccccc2)oc1C)Oc1ccc(C[C@H](OC)C(=O)O)c2sccc12 [Compound 2]
- Total score of renal focal lesions compared to the model group [2]: significantly improved
- Serum NEFA compared with the vehicle group [3]: significantly reduce
- Serum TG compared with the vehicle group [3]: significantly reduce
- Serum NEFA compared with Aleglitazar ([3]; 0.2 mg/kg, T-test, P<0.05): significantly reduce
- Serum TG compared with Aleglitazar ([3]; 0.2 mg/kg, T-test, P<0.05): significantly reduce
- serum TG, significance compared with the first group (vehicle), One-way ANOVA [3, 9]: *** (***p < 0.001)
- serum TG, significance compared with the first group (vehicle), One-way ANOVA [3, 10]: *** (***p < 0.001)
- Weight Gain (g) compared with Day 0 [4, 11]: 0.45 ± 0.28 g
- Weight Gain (g) compared with Day 0 [4, 12]: 1.42 ± 0.22 g
- Weight Gain (g) compared with Day 0 [4, 13]: 2.56 ± 0.23 g
- Weight Gain (g) compared with Day 0 [4, 14]: 2.96 ± 0.23 g
- Weight Gain (g) compared with Day 0 [4, 15]: 3.73 ± 0.34 g
- Weight Gain (g) compared with Day 0 [4, 16]: 4.66 ± 0.39 g
- Weight Gain (g) compared with Day 0 [4, 17]: 5.08 ± 0.42 g
- Daily weight gain compared with the vehicle group ([4]; 0.2 mg/kg, throughout the study): no significant difference
- Weight Gain (g) compared with Day 0 [4, 18]: 0.4 ± 0.17 g
- Weight Gain (g) compared with Day 0 [4, 19]: 1.57 ± 0.26 g
- Weight Gain (g) compared with Day 0 [4, 20]: 2.71 ± 0.19 g
- Weight Gain (g) compared with Day 0 [4, 21]: 3.61 ± 0.19 g
- Weight Gain (g) compared with Day 0 [4, 22]: 3.96 ± 0.29 g
- Weight Gain (g) compared with Day 0 [4, 23]: 4.84 ± 0.4 g
- Weight Gain (g) compared with Day 0 [4, 24]: 5.44 ± 0.36 g
- Weight gain, significance compared with vehicle, One-way ANOVA ([4]; 1 mg/kg, Day 4): ** (**p < 0.01)
- Average daily weight gain compared with the vehicle group ([4]; 1 mg/kg, Day 4 and 5): significantly higher
- Weight gain, significance compared with vehicle, One-way ANOVA ([4]; 1 mg/kg, Day 5): * (* p < 0.05)
- Serum TG, rank of effect among groups ([5]; 1 mg/kg (Group 6), Day 6 and Day 12): largest effect
- statistical difference (p) of the blood glucose level between treatment group and vehicle group ([5]; 0.2 mpk, Day 0, db/db mice): p > 0.05
- Serum TG levels compared with the vehicle group ([5]; Day 6 and Day 12): significantly lower
- Random blood glucose reduction compared with the vehicle group ([5]; Day 7, 1 mg/kg): reached statistical significance
- Average daily body weights compared with the vehicle group [5]: significantly higher
- Random blood glucose lowering compared with the vehicle group ([5]; Day 14, 0.05 mg/kg): did not reach statistical significance
- Random blood glucose lowering vs vehicle, compared with Day 7 ([5]; Day 14, 1 mg/kg): more pronounced effect of blood glucose lowering
- Effect on lowering blood glucose compared with Aleglitazar ([5]; overall): slightly weaker effect
- Level of lipid, free fatty acid and blood glucose compared with vehicle group [5]: significantly decreased
- 24-hour urinary albumin ([7]; 5th and 9th weeks after compound administration, 0.1, 0.3, 1 mg/kg oral once per day): significantly decreased
- Glomerular damage and glomerular hypertrophy ([7]; 10 weeks treatment): suppressed the glomerular damage and ameliorate the glomerular hypertrophy
- Renal tubular injury ([7]; all dosage levels): improved the tubular injury at some extend
- Glomerular volume ([7]; high dose (1 mg/kg)): statistically significantly reduced
- Glomerulosclerosis histopathological score ([7]; high dose (1 mg/kg)): statistically significantly reduced
- OGTT blood glucose compared with the vehicle group ([6]; 0.05 mg/kg (Group 4), all time points): trend of decrease but did not reach statistical significance
- OGTT AUC0-120 min compared with the vehicle group [6, 25]: significantly lower
- OGTT AUC0-120 min compared with the vehicle group ([6]; 1 mg/kg, P<0.0001): significantly lower
- OGTT AUC0-120 min compared with Aleglitazar ([6]; same dose level (0.2 mg/kg)): higher
- OGTT blood glucose levels at each time point compared with the vehicle group [6]: significantly reduced

Structure (SMILES): [2H]C([2H])(Cc1nc(-c2ccccc2)oc1C)Oc1ccc(C[C@H](OC)C(=O)O)c2sccc12 [free acid Form D]
- Form after storage [8]: converted to free acid Form E
